Patent EP1254251B1, “NEUROSTEROIDS AS MARKERS FOR ALZHEIMER'S DISEASE” (Georgetown University, priority 2000, dated 2001)

Tests used:
[1] = test system: MGM-1; assay: Alternative pathway D synthesis in cells treated with FeSO4, or with Ab with or without Vitamin E (TLC, RIA); type: cell-based, human; conditions: MGM-1, 50 mM Aβ, vs control, p < 0.01
Protocol: Alternative Pathway: To determine the amount ofD synthesized by the alternative pathway cells were treated as previously described. (15). In brief, cells were washed and oligodendrocytes and astrocytes were incubated with increasing concentrations of FeSO4 in serum free media, with and without SU 10603 (10 mM); neurons were incubated in serum free media containing 5 mM P plus FeSO4 with and without 10 mM SU 10603. After two hours, cells and media were homogenized and extracted as described above. Extracts were run on C 18 TLC plates (Whatman, Clifton, NJ) with a mobile phase of 95% methanol (v/v); radiolabeled standards for P, progesterone, and D were run on each plate, and appropriate steroid fractions were collected for each sample. TLC fractions were extracted with 2 ml diethyl ether (Fluka, New York) and evaporated. TLC extracts were assayed by specific radioimmunoassay (RIA). […]
RIA using antibodies specific for each steroid (ICN Pharmaceuticals, Costa Mesa, CA Mesa) was used to measure P, progesterone and D levels. The data were analyzed using the IBM-PC RIA Data Reduction Program (version 4.1) from Jaffe and Associates (Silver Spring, MD). Levels of β-amyloid species in AD and control brain samples were analyzed using 4G8 (Senetex PLC, Napa, CA), a monoclonal antibody to β-amyloid peptide that recognizes amino acids 17-24. […]

[2] = test system: MGM-1 human glioma cells; assay: ROS measurement by 2,7-DCF fluorescence; type: cell-based; conditions: MGM-1, 50 mM Aβ, vs control, p < 0.01
Protocol: β-Amyloid Regulation of the Alternative Pathway: MGM-1 cells were plated on 96 well (~5,000 cells/well, for ROS measurements) or 24 well (~15,000 cells/well, for D measurements) plates (Corning Costar, Acton, MA). At the same time, 1 mg Ab (Ab (1-42), AnaSpec Inc., San Jose, CA) was dissolved in 0.5 ml serum-free media and incubated at 4C for aggregation. 24 hours later, cells were incubated in DMEM with 10% fetal bovine serum and […] or […] and 10 mM Vitamin E (Sigma, St. Louis, MO). Control samples were incubated in DMEM with 10% FBS. Cells were incubated at 37C and 6% CO2 for at least 12 hours and processed for ROS generation (see below) or D synthesis as described above for the alternative experiments.
Treatment media was removed and the cells were washed with PBS. The fluorescent probe 2,7- dichlorofluorescin diacetate (2,7-DCF, Molecular Probes, Inc., Eugene, OR) was used to measure levels of oxidative stress (48). Cells were incubated with […] 2,7-DCF, fluorescence was measured at 485nm/535nm using the Victor^2 Multilabel Counter (EG&G Wallac, Gaithersburg, MD) and values of cellular fluorescence were obtained.

In the case of “Ab: Ab (1-42), AnaSpec Inc.; β-amyloid, a component of Alzheimer's disease plaques”, the D levels [1] is reported as “increased D levels significantly” and the “2,7-DCF fluorescence (ROS)” value [2] is reported as “significant increase”.
